Literature values, collected in PubChem BioAssay AID1259409 (Chemical Carcinogenesis Research Information System (CCRIS), 2018).

System: rodent chemically induced tumor inhibition, incidence and multiplicity
Assay: CCRIS tumor inhibitor studies
Conditions: Dose [Inhibitor]: 0, Route [Inhibitor]: SUBCUTANEOUS

| Compound | tumour outcome (control, treated, inhibition, significance) (Carcinogen: 7,12-DIMETHYLBENZ[A]ANTHRACENE, 57-97-6, 30 MG (AS DEPO-PROVERA) ONCE 3 WK POST CARCINOGEN DOSE (STUDY DURATION: 85 D), Species: RAT, Strain/Sex: SPRAGUE-DAWLEY/FEMALE, Target Tissue: Type of Lesion: MAMMARY GLAND: TUMOR, Dose [Carcinogen]: 20 MG IN 1 ML CORN OIL ONCE, Promoter: NONE USED) | tumour outcome (control, treated, inhibition, significance) (Carcinogen: 7,12-DIMETHYLBENZ[A]ANTHRACENE, 57-97-6, 30 MG (AS DEPO-PROVERA) ONCE 7 D PRIOR TO CARCINOGEN DOSE (STUDY DURATION: 92 D), Species: RAT, Strain/Sex: SPRAGUE-DAWLEY/FEMALE, Target Tissue: Type of Lesion: MAMMARY GLAND: TUMOR, Dose [Carcinogen]: 20 MG IN 1 ML CORN OIL ONCE, Promoter: NONE USED) | tumour outcome (control, treated, inhibition, significance) (Carcinogen: 7,12-DIMETHYLBENZ[A]ANTHRACENE, 57-97-6, 30 MG (MICROSPHERES) ONCE 7 D PRIOR TO CARCINOGEN DOSE (STUDY DURATION: 92 D), Species: RAT, Strain/Sex: SPRAGUE-DAWLEY/FEMALE, Target Tissue: Type of Lesion: MAMMARY GLAND: TUMOR, Dose [Carcinogen]: 20 MG IN 1 ML CORN OIL ONCE, Promoter: NONE USED) | tumour outcome (control, treated, inhibition, significance) (Carcinogen: 7,12-DIMETHYLBENZ[A]ANTHRACENE, 57-97-6, 100 MG (AS DEPO-PROVERA) ONCE 3 WK POST CARCINOGEN DOSE (STUDY DURATION: 85 WK), Species: RAT, Strain/Sex: SPRAGUE-DAWLEY/FEMALE, Target Tissue: Type of Lesion: MAMMARY GLAND: TUMOR, Dose [Carcinogen]: 20 MG IN 1 ML CORN OIL ONCE, Promoter: NONE USED) | tumour outcome (control, treated, inhibition, significance) (Carcinogen: 7,12-DIMETHYLBENZ[A]ANTHRACENE, 57-97-6, 100 MG (AS DEPO-PROVERA) ONCE 7 D PRIOR TO CARCINOGEN DOSE (STUDY DURATION: 92 D), Species: RAT, Strain/Sex: SPRAGUE-DAWLEY/FEMALE, Target Tissue: Type of Lesion: MAMMARY GLAND: TUMOR, Dose [Carcinogen]: 20 MG IN 1 ML CORN OIL ONCE, Promoter: NONE USED) | tumour outcome (control, treated, inhibition, significance) (Carcinogen: 7,12-DIMETHYLBENZ[A]ANTHRACENE, 57-97-6, 100 MG (MICROSPHERES) ONCE 7 D PRIOR TO CARCINOGEN DOSE (STUDY DURATION: 92 D), Species: RAT, Strain/Sex: SPRAGUE-DAWLEY/FEMALE, Target Tissue: Type of Lesion: MAMMARY GLAND: TUMOR, Dose [Carcinogen]: 20 MG IN 1 ML CORN OIL ONCE, Promoter: NONE USED) | tumour outcome (control, treated, inhibition, significance) (Carcinogen: METHYLNITROSOUREA, 684-93-5, 40 MG DEPOT EVERY 2 MO (STUDY DURATION: 345 D), Species: MOUSE, Strain/Sex: BALB/FEMALE, Target Tissue: Type of Lesion: HEMATOPOIETIC SYSTEM: LYMPHOMA, Dose [Carcinogen]: 50 MG/KG BW ONCE 15 D POST INHIBITOR REMOVAL, Promoter: NONE) | tumour outcome (control, treated, inhibition, significance) (Carcinogen: METHYLNITROSOUREA, 684-93-5, 40 MG DEPOT EVERY 2 MO (STUDY DURATION: 345 D), Species: MOUSE, Strain/Sex: BALB/FEMALE, Target Tissue: Type of Lesion: LUNG: TUMOR, Dose [Carcinogen]: 50 MG/KG BW ONCE 15 D POST INHIBITOR REMOVAL, Promoter: NONE) | tumour outcome (control, treated, inhibition, significance) (Carcinogen: METHYLNITROSOUREA, 684-93-5, 40 MG DEPOT EVERY 3 MO (STUDY DURATION: 277 D), Species: MOUSE, Strain/Sex: BALB/FEMALE, Target Tissue: Type of Lesion: HEMATOPOIETIC SYSTEM: LYMPHOMA, Dose [Carcinogen]: 50 MG/KG BW ONCE 1 WK POST INHIBITOR FIRST DOSE, Promoter: NONE) | tumour outcome (control, treated, inhibition, significance) (Carcinogen: METHYLNITROSOUREA, 684-93-5, 40 MG DEPOT EVERY 3 MO (STUDY DURATION: 277 D), Species: MOUSE, Strain/Sex: BALB/FEMALE, Target Tissue: Type of Lesion: LUNG: TUMOR, Dose [Carcinogen]: 50 MG/KG BW ONCE 1 WK POST INHIBITOR FIRST DOSE, Promoter: NONE) | tumour outcome (control, treated, inhibition, significance) (Carcinogen: METHYLNITROSOUREA, 684-93-5, 40 MG DEPOT EVERY 3 MO BEGINNING 1 WK POST CARCINOGEN (STUDY DURATION: 9 MO), Species: MOUSE, Strain/Sex: BALB/FEMALE, Target Tissue: Type of Lesion: HEMATOPOIETIC SYSTEM: LYMPHOMA, Dose [Carcinogen]: 50 MG/KG BW ONCE, Promoter: NONE) | tumour outcome (control, treated, inhibition, significance) (Carcinogen: METHYLNITROSOUREA, 684-93-5, 40 MG DEPOT EVERY 3 MO BEGINNING 1 WK POST CARCINOGEN (STUDY DURATION: 9 MO), Species: MOUSE, Strain/Sex: BALB/FEMALE, Target Tissue: Type of Lesion: LUNG: TUMOR, Dose [Carcinogen]: 50 MG/KG BW ONCE, Promoter: NONE) | tumour outcome (control, treated, inhibition, significance) (Carcinogen: METHYLNITROSOUREA, 684-93-5, 40 MG DEPOT FOR 2 MO BEGINNING 1 WK POST CARCINOGEN (STUDY DURATION: 9 MO), Species: MOUSE, Strain/Sex: BALB/FEMALE, Target Tissue: Type of Lesion: HEMATOPOIETIC SYSTEM: LYMPHOMA, Dose [Carcinogen]: 50 MG/KG BW ONCE, Promoter: NONE) | tumour outcome (control, treated, inhibition, significance) (Carcinogen: METHYLNITROSOUREA, 684-93-5, 40 MG DEPOT FOR 2 MO BEGINNING 1 WK POST CARCINOGEN (STUDY DURATION: 9 MO), Species: MOUSE, Strain/Sex: BALB/FEMALE, Target Tissue: Type of Lesion: LUNG: TUMOR, Dose [Carcinogen]: 50 MG/KG BW ONCE, Promoter: NONE) | tumour outcome (control, treated, inhibition, significance) (Carcinogen: CISPLATIN, 15663-27-1, 40 UMOL/KG/D 3 D/WK FOR 8 WK ADMINISTERED 24 HR PRIOR TO EACH CARCINOGEN DOSE (STUDY DURATION: 24 WK), Species: MOUSE, Strain/Sex: STRAIN-A/FEMALE, Target Tissue: Type of Lesion: LUNG: TUMOR, Dose [Carcinogen]: 2 UMOL/KG/D 3 D/WK FOR 8 WK, Promoter: NONE USED) | tumour outcome (control, treated, inhibition, significance) (Carcinogen: MELPHALAN, 148-82-3, 40 UMOL/KG/D 3 D/WK FOR 8 WK ADMINISTERED 24 HR PRIOR TO EACH CARCINOGEN DOSE (STUDY DURATION: 24 WK), Species: MOUSE, Strain/Sex: STRAIN-A/FEMALE, Target Tissue: Type of Lesion: LUNG: TUMOR, Dose [Carcinogen]: 4 UMOL/KG/D 3 D/WK FOR 8 WK, Promoter: NONE USED) |
| --- | --- | --- | --- | --- | --- | --- | --- | --- | --- | --- | --- | --- | --- | --- | --- | --- |
| CC(=O)O[C@]1(C(C)=O)CC[C@H]2[C@@H]3C[C@H](C)C4=CC(=O)CC[C@]4(C)[C@H]3CC[C@@]21C | 63%, 49%, 22%, not calculated | 63%, 28%, 56%, not calculated | 63%, 7%, 89%, not calculated | 63%, 29%, 54%, not calculated | 63%, 23%, 63%, not calculated | 63%, 6%, 90%, not calculated | 18/28 (65%), 5/35 (17%), 74%, p<0.05 | 24/28 (86%), 28/31 (89%), -3%, not significant | 18/28 (65%), 7/35 (19%), 71%, p<0.05 | 24/28 (86%), 31/35 (88%), -2%, not significant | 18/28 (65%), 7/50 (15%), 77%, p<0.05 | 24/28 (86%), 44/50 (89%), -3%, not significant | 18/28 (65%), 7/27 (26%), 60%, p<0.05 | 24/28 (86%), 23/27 (85%), 0%, not significant | – | – |
| [Cl][Zn][Cl] | – | – | – | – | – | – | – | – | – | – | – | – | – | – | 100%, 69%, 31%, p<0.05 | 100%, 100%, 0%, not significant |
